# Source: patent US11365188B2, “JAK inhibitors” (priority 2018, dated 2022)
# Structures can show the parent of a compound that is named as a salt.
# Experiments:
# Format in all cases: biochemical
# JAK1 = JAK1 (Homo sapiens, UniProt P23458); experiment: JAK Kinase Assay (JAK1, Caliper EZ Reader, fluoresceinated peptide); conditions: ATP 76.5 μM; JAK1 10 nM; 120 minutes at room temperature; read-out: JAK1 inhibition
# JAK2 = JAK2 (Homo sapiens, UniProt O60674); experiment: JAK2 Assay (Caliper EZ Reader, fluoresceinated peptide); conditions: ATP 11.4 μM; JAK2 0.25 nM; 15 minutes at room temperature; read-out: JAK2 inhibition
# JAK2, sequence (O60674 whole entry, species assumed): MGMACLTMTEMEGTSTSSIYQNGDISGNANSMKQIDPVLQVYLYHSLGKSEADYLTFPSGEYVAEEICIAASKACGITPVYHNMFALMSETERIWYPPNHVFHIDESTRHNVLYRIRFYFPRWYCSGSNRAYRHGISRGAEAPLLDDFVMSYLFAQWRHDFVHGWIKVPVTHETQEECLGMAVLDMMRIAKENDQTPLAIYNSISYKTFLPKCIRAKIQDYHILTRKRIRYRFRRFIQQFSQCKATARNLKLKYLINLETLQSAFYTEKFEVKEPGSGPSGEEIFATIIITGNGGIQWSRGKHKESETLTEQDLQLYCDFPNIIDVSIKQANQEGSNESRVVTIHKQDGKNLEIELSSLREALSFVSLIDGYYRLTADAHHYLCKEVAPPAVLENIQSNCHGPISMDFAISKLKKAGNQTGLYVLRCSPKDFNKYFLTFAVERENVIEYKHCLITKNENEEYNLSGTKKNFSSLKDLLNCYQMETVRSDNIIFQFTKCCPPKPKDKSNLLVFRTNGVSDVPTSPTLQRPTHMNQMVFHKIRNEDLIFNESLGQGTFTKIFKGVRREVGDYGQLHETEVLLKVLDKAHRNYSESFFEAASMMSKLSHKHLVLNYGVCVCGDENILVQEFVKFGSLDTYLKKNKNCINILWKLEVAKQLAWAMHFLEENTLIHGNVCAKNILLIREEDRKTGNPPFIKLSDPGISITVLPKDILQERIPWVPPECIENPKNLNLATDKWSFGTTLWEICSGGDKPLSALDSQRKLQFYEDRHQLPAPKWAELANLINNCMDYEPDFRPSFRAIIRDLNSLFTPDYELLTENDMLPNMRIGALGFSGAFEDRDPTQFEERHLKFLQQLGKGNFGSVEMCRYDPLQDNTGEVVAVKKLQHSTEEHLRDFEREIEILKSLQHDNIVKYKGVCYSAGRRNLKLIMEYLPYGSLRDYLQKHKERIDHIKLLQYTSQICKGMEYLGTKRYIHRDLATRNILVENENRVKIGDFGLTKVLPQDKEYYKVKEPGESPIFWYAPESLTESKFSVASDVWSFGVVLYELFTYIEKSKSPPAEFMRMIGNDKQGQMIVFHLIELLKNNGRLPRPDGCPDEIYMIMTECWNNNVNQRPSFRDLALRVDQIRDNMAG
# Procedure: JAK2 Assay 384-well plates in the left foot butoxy measured progress. The final assay volume was 25 μL, 250 nL 100× compounds, 10 μL enzyme mix and 15 μL substrate mix (fluoresceinated peptide and ATP) in assay buffer (50 mM HEPES (pH 7.5), 10 mM MgCl2, 0.01% TritonX-100, 0.01% Brij35, 0.5 mM EGTA and 2 mM DTT) prepared as test compound By mixing the JAK2 with substrates and test compounds to start the reaction. The reaction mixture was incubated for 15 minutes at room temperature, then added 30 μL stop buffer for each sample to terminate the reaction with 50 mM EDTA. After termination of the kinase reaction, the proportion of phosphorylated product was determined as a fraction of total peptide substrate using Caliper EZ Reader 1 Inhibition data were calculated by comparison with 100% of the reaction mixture without enzyme inhibition and vehicle-only reaction mixture billion % inhibition compared. The final concentration of reagents in the assays is: ATP, 11.4 μM; JAK2 fluorescent peptide (5-FAM-EEPLYWSFPAKKK-CONH2), 3 μM; JAK2, 0.25 nM; and DMSO, 1%. Dose response curve were generated to determine the concentration required for IC50 of JAK2 activity.
# JAK3 = target: T1, JAK3 (Homo sapiens, UniProt P52333); experiment: JAK3 Assay (Caliper EZ Reader, fluoresceinated peptide); conditions: ATP 3.5 μM; JAK3 0.5 nM; 30 minutes at room temperature; read-out: JAK3 inhibition
# T1 sequence (P52333 1-1124): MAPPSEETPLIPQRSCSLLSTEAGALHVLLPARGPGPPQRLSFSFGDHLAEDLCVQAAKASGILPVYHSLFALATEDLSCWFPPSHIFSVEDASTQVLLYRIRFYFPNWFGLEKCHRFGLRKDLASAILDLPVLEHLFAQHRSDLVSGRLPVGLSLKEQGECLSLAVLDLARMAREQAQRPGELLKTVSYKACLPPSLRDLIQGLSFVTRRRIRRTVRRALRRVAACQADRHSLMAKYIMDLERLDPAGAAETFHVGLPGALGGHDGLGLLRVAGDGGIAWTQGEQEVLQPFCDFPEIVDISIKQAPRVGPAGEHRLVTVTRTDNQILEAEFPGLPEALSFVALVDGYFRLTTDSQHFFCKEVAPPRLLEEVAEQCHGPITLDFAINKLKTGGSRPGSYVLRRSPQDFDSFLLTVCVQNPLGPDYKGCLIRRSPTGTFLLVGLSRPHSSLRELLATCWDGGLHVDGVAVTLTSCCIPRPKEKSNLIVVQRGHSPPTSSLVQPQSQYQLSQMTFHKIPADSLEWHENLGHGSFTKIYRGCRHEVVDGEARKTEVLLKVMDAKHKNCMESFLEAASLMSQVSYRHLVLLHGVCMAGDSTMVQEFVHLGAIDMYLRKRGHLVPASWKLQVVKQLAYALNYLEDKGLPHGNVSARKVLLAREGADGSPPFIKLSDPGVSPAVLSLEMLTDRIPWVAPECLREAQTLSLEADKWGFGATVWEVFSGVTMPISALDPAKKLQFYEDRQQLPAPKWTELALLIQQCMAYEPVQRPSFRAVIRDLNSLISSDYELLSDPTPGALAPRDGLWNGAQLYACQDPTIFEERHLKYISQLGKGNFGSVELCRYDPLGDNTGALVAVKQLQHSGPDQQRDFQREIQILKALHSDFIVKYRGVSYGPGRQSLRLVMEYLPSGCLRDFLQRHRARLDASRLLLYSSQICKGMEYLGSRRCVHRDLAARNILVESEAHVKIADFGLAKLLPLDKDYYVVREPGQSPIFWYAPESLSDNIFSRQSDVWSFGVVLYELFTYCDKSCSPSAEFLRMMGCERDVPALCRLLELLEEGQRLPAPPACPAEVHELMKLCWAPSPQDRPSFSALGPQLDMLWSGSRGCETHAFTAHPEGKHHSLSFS
# Procedure: JAK3 Assay 384-well plates in the left foot butoxy measured progress. The final assay volume was 25 μL, 250 nL 100× compounds, 10 μL enzyme mix and 15 μL substrate mix (fluoresceinated peptide and ATP) in assay buffer (50 mM HEPES (pH 7.5), 10 mM MgCl2, 0.01% TritonX-100, 0.01% Brij35, 0.5 mM EGTA and 2 mM DTT) prepared as test compound. By mixing the JAK3 with substrates and test compounds to start the reaction. The reaction mixture was incubated for 30 minutes at room temperature, then added 30 μL stop buffer for each sample to terminate the reaction with 50 mM EDTA. After termination of the kinase reaction, the proportion of phosphorylated product was determined as a fraction of total peptide substrate using Caliper EZ Reader II. Inhibition data were calculated by comparison with 100% of the reaction mixture without enzyme inhibition and vehicle-only reaction mixture billion % inhibition compared. The final concentration of reagents in the assays is: ATP, 3.5 μM; JAK3 fluorescent peptide (5-FAM-EEPLYWSFPAKKK-CONH2), 3 μM; JAK3, 0.5 nM; and DMSO, 1%. Dose response curve were generated to determine the concentration required for IC50 of JAK3 activity.
# JAK1, sequence (P23458 whole entry, species assumed): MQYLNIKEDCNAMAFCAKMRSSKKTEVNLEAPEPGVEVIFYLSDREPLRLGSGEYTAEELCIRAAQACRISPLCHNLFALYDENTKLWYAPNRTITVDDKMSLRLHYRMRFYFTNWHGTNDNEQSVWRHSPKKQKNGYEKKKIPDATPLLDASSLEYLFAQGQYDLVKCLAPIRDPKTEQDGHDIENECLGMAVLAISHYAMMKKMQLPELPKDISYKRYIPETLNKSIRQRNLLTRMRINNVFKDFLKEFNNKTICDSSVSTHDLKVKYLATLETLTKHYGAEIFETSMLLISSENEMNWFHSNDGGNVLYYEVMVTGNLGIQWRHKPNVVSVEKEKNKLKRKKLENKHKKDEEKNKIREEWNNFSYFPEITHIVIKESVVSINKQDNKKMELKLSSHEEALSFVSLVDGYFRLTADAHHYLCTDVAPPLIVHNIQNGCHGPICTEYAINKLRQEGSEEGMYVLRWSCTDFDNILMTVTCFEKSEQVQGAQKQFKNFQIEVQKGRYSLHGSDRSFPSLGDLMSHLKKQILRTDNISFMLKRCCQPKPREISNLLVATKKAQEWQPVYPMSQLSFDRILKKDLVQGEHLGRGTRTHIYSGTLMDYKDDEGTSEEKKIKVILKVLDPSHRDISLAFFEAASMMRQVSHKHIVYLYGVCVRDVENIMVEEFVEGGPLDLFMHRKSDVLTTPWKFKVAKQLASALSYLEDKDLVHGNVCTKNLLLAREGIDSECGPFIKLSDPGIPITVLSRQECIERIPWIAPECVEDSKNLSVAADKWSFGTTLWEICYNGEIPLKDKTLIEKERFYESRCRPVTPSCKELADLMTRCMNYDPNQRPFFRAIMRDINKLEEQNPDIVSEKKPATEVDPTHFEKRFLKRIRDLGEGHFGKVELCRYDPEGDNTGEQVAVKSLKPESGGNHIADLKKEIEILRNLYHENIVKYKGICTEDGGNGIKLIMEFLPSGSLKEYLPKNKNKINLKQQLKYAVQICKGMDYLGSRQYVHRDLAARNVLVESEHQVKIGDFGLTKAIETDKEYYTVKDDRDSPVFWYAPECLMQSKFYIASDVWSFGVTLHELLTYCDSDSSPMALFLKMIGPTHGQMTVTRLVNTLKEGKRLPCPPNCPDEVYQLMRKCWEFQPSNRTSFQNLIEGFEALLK
IC50 (JAK1),IC50 (JAK2),IC50 (JAK3),SMILES
100 to 1000 nM,100 to 1000 nM,1000 to 10000 nM,"CCCS(=O)(=O)N1CCC2(CCC(N(C)c3ncnc4c3CCN4)CC2)CC1 [Compound 96, (6,7-Dihydro-5H-pyrrolo[2,3-d]pyrimidin-4-yl)-methyl-[3-(propane-1-sulfonyl)-3-aza-spiro[5.5]undec-9-yl]-amine]"
100 to 1000 nM,100 to 1000 nM,100 to 1000 nM,"CN(c1ncnc2[nH]ccc12)C1CCC2(CC1)CCN(C(=O)c1cc3ccccc3[nH]1)CC2 [Compound 95, (1H-Indol-2-yl)-{9-[methyl-(7H-pyrrolo[2,3-d]pyrimidin-4-yl)-amino]-3-aza-spiro[5.5]undec-3-yl}-methanone]"
10 to 100 nM,100 to 1000 nM,100 to 1000 nM,"CN(c1ncnc2[nH]ccc12)C1CCC2(CC1)CCN(S(=O)(=O)CC(F)(F)F)CC2 [Compound 103, Methyl-(7H-pyrrolo[2,3-d]pyrimidin-4-yl)-[3-(2,2,2-trifluoro-ethanesulfonyl)-3-aza-spiro[5.5]undec-9-yl]-amine]"
10 to 100 nM,10 to 100 nM,100 to 1000 nM,"CN(c1ncnc2[nH]ccc12)C1CCC2(CC1)CCN(C(=O)CO)CC2 [Compound 77, 2-Hydroxy-1-{9-[methyl-(7H-pyrrolo[2,3-d]pyrimidin-4-yl)-amino]-3-aza-spiro[5.5]undec-3-yl}-ethanone]"
100 to 1000 nM,100 to 1000 nM,1000 to 10000 nM,"CN(c1ncnc2[nH]ccc12)C1CCC2(CC1)CCN(C(=O)c1ccc(C#N)cc1F)CC2 [Compound 84, 3-Fluoro-4-{9-[methyl-(7H-pyrrolo[2,3-d]pyrimidin-4-yl)-amino]-3-aza-spiro[5.5]undecane-3-carbonyl}-benzonitrile]"
10 to 100 nM,100 to 1000 nM,100 to 1000 nM,"CN(c1ncnc2[nH]ccc12)C1CCC2(CC1)CCN(C(=O)Cc1ccc(C#N)cc1)CC2 [Compound 85, 4-(2-{9-[Methyl-(7H-pyrrolo[2,3-d]pyrimidin-4-yl)-amino]-3-aza-spiro[5.5]undec-3-yl}-2-oxo-ethyl)-benzonitrile]"
100 to 1000 nM,100 to 1000 nM,1000 to 10000 nM,"CNCC(=O)N1CCC2(CCC(N(C)c3ncnc4[nH]ccc34)CC2)CC1 [Compound 97, 2-Methylamino-1-{9-[methyl-(7H-pyrrolo[2,3-d]pyrimidin-4-yl)-amino]-3-aza-spiro[5.5]undec-3-yl}-ethanone HCl salt]"
100 to 1000 nM,100 to 1000 nM,100 to 1000 nM,"CN(c1ncnc2[nH]ccc12)C1CCC2(CC1)CCN(CC(F)(F)F)CC2 [Compound 79, Methyl-(7H-pyrrolo[2,3-d]pyrimidin-4-yl)-[3-(2,2,2-trifluoro-ethyl)-3-aza-spiro[5.5]undec-9-yl]-amine]"
100 to 1000 nM,100 to 1000 nM,100 to 1000 nM,"CN(c1ncnc2[nH]ccc12)C1CCC2(CC1)CCN(C(=O)c1ccc(C#N)c(F)c1)CC2 [Compound 87, 2-Fluoro-4-{9-[methyl-(7H-pyrrolo[2,3-d]pyrimidin-4-yl)-amino]-3-aza-spiro[5.5]undecane-3-carbonyl}-benzonitrile]"
100 to 1000 nM,1000 to 10000 nM,1000 to 10000 nM,"CN(c1ncnc2[nH]ccc12)C1CCC2(CC1)CCN(C(=O)C1CCC(=O)CC1)CC2 [Compound 82, 4-{9-[Methyl-(7H-pyrrolo[2,3-d]pyrimidin-4-yl)-amino]-3-aza-spiro[5.5]undecane-3-carbonyl}-cyclohexanone]"
100 to 1000 nM,1000 to 10000 nM,≥ 10000 nM,"CN(c1ncnc2[nH]ccc12)C1CC2(C1)CN(C(=O)c1cnn(C3CC3)c1)C2 [Compound 69, (1-Cyclopropyl-1H-pyrazol-4-yl)-{6-[methyl-(7H-pyrrolo[2,3-d]pyrimidin-4-yl)-amino]-2-aza-spiro[3.3]hept-2-yl}-methanone]"

# The remaining lines, values behind:
SMILES,IC50 (JAK1),IC50 (JAK2),IC50 (JAK3)
"CN(c1ncnc2[nH]ccc12)C1CC2(C1)CN(C(=O)c1cccc(C#N)c1)C2 [Compound 11, 3-(6-(methyl(7H-pyrrolo[2,3-d]pyrimidin-4-yl)amino)-2-azaspiro[3.3]heptane-2-carbonyl)benzonitrile]",10 to 100 nM,100 to 1000 nM,1000 to 10000 nM
"CN(c1ncnc2[nH]ccc12)C1CC2(C1)CN(C(=O)CCC#N)C2 [Compound 10, 4-(6-(methyl(7H-pyrrolo[2,3-d]pyrimidin-4-yl)amino)-2-azaspiro[3.3]heptan-2-yl)-4-oxobutanenitrile]",10 to 100 nM,100 to 1000 nM,1000 to 10000 nM
"CCOC(=O)N1CC2(CC(N(C)c3ncnc4[nH]ccc34)C2)C1 [Compound 8, ethyl 6-(methyl(7H-pyrrolo[2,3-d]pyrimidin-4-yl)amino)-2-azaspiro[3.3]heptane-2-carboxylate]",100 to 1000 nM,1000 to 10000 nM,1000 to 10000 nM
"CN(c1ncnc2[nH]ccc12)C1CC2(C1)CN(C(=O)c1cc[nH]n1)C2 [Compound 45, (6-(methyl(7H-pyrrolo[2,3-d]pyrimidin-4-yl)amino)-2-azaspiro[3.3]heptan-2-yl)(1H-pyrazol-3-yl)methanone]",1000 to 10000 nM,1000 to 10000 nM,≥ 10000 nM
"CN(c1ncnc2[nH]ccc12)C1CC2(C1)CN(C(=O)C1(C#N)CC1)C2 [Compound 19, 1-(6-(methyl(7H-pyrrolo[2,3-d]pyrimidin-4-yl)amino)-2-azaspiro[3.3]heptane-2-carbonyl)cyclopropanecarbonitrile]",10 to 100 nM,100 to 1000 nM,1000 to 10000 nM
"CN(c1ncnc2[nH]ccc12)C1CC2(C1)CN(C(=O)Cc1ccc(C#N)cc1)C2 [Compound 15, 4-(2-(6-(methyl(7H-pyrrolo[2,3-d]pyrimidin-4-yl)amino)-2-azaspiro[3.3]heptan-2-yl)-2-oxoethyl)benzonitrile]",100 to 1000 nM,1000 to 10000 nM,1000 to 10000 nM
"CN(c1ncnc2[nH]ccc12)C1CC2(C1)CN(C(=O)c1cnccn1)C2 [Compound 18, (6-(methyl(7H-pyrrolo[2,3-d]pyrimidin-4-yl)amino)-2-azaspiro[3.3]heptan-2-yl)(pyrazin-2-yl)methanone]",100 to 1000 nM,1000 to 10000 nM,≥ 10000 nM
"CN(c1ncnc2[nH]ccc12)C1CC2(C1)CN(C(=O)CCC(F)(F)F)C2 [Compound 21, 4,4,4-trifluoro-1-(6-(methyl(7H-pyrrolo[2,3-d]pyrimidin-4-yl)amino)-2-azaspiro[3.3]heptan-2-yl)butan-1-one]",10 to 100 nM,100 to 1000 nM,1000 to 10000 nM
